According to PubChem BioAssay (NCI):
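How tested: cells in 96-well plates exposed to compound for 48 hours at five concentrations. TGI denotes the concentration required for complete inhibition of growth.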

Columns and labels:
Experiment in all cases: NCI tumour cell line growth inhibition, 48 h
[1] = test system: COLO 205 colon
[2] = test system: EKVX NSCLC
[3] = test system: HCT-15 colon
[4] = test system: HOP-62 NSCLC
[5] = test system: HOP-92 NSCLC
[6] = test system: HT29 colon
[7] = test system: K-562 leukemia
[8] = test system: LOX IMVI melanoma
[9] = test system: M14 melanoma
[10] = test system: MALME-3M melanoma
[11] = test system: MDA-MB-435
[12] = test system: NCI-H522 lung
[13] = test system: NCI/ADR-RES ovarian
[14] = test system: SK-MEL-2 melanoma
[15] = test system: SNB-19 CNS
[16] = test system: SNB-75 CNS
[17] = test system: SR leukemia
[18] = test system: SW-620 colon
[19] = test system: UO-31 renal

| Compound | TGI [1] | TGI [2] | TGI [3] | TGI [4] | TGI [5] | TGI [6] | TGI [7] | TGI [8] | TGI [9] | TGI [10] | TGI [11] | TGI [12] | TGI [13] | TGI [14] | TGI [15] | TGI [16] | TGI [17] | TGI [18] | TGI [19] |
| --- | --- | --- | --- | --- | --- | --- | --- | --- | --- | --- | --- | --- | --- | --- | --- | --- | --- | --- | --- |
| Cc1c2ccccc2c(C2C3C(=O)N(c4cccc5ccccc45)C(=O)C3ON2Cc2ccc(CC(N)=O)cc2)c2ccccc12 (configuration not stated) | 14.6 µM | 48.9 µM | > 50 µM | > 50 µM | > 50 µM | 27 µM | > 50 µM | > 50 µM | > 50 µM | > 50 µM | > 50 µM | > 50 µM | > 50 µM | 31.3 µM | > 50 µM | 43.5 µM | 37.6 µM | > 50 µM | > 50 µM |
| O=c1nc2c(c(-c3ccc(F)cc3)[nH]1)COC/C2=C\c1ccc(F)cc1 | > 100 µM | > 100 µM | > 100 µM | > 100 µM | > 100 µM |  | > 100 µM | > 100 µM | > 100 µM |  | > 100 µM | > 100 µM | > 100 µM | > 100 µM | > 100 µM | > 100 µM | > 100 µM | > 100 µM | > 100 µM |
| CCCNCC(O)CNc1ccc(NCC(O)CNCCC)c2c1C(=O)c1ccccc1C2=O (configuration not stated) | 7.97 µM | 20.1 µM | 75 µM | 8 µM | 6.81 µM | 7.69 µM | 8.21 µM | 3.62 µM | 11 µM | 11.3 µM | 10.5 µM | 7.81 µM | > 75 µM | 5.22 µM | 6.35 µM | 8.83 µM | 11 µM | 7.21 µM | 31.8 µM |
| CCOC(=O)C1=CNC(C(=O)OCC)C1c1cccn1-c1ccccc1 (configuration not stated) | 68.2 µM | > 100 µM | > 100 µM | > 100 µM | 56.8 µM | 50.5 µM | > 100 µM | 31 µM | > 100 µM |  | 57.6 µM | 59.1 µM | 91.4 µM | 37.2 µM |  | 65.4 µM | 55.3 µM | > 100 µM | > 100 µM |
| O=C1CCSc2nc(-c3ccc4c(c3)OCO4)nn21 | > 10 µM | > 10 µM | > 10 µM | > 10 µM | > 10 µM | > 10 µM | > 10 µM | > 10 µM | > 10 µM | > 10 µM | > 10 µM | > 10 µM | > 10 µM | > 10 µM | > 10 µM | > 10 µM | > 10 µM | > 10 µM |  |
| CO[C@H]1O[C@@H]2OC3(C)CCC4[C@H](C)CCC([C@H]1C)[C@]42OO3 (some centres not stated) | > 100 µM | > 100 µM | > 100 µM | > 100 µM | > 100 µM | > 100 µM | > 100 µM | > 100 µM | > 100 µM | > 100 µM | > 100 µM | > 100 µM | > 100 µM | > 100 µM | > 100 µM | > 100 µM | > 100 µM | > 100 µM | > 100 µM |
| COC(=O)[C@H](COC(C)(C)C)NC(=O)N[C@H](C)c1ccccc1 | > 100 µM | > 100 µM | > 100 µM | > 100 µM | > 100 µM | > 100 µM | > 100 µM | > 100 µM | > 100 µM |  | > 100 µM | > 100 µM | > 100 µM | > 100 µM | > 100 µM | > 100 µM | > 100 µM | > 100 µM | > 100 µM |
